Assay results taken from PubChem BioAssay AID2792 (Sanford-Burnham Center for Chemical Genomics, 2010).
The source made the active and inactive calls. No rule for the calls is given here.

System: NF-kappaB luciferase reporter cells, PMA/ionomycin induced
Test: NF-kB luciferase suppression after PMA/ionomycin – cell-based, PMA/ionomycin inducer, set 2, SAR follow-up (AID 2792)

**Q.** Which IC50 does the source give for `Nc1nc2ccccc2n1CCOc1ccc(Cl)cc1` here?
**A.** > 25 µM (inactive)

**Q.** `C=CCn1c(SCCCc2ccccc2)nc2c1c(=O)[nH]c(=O)n2C` was tested. Which IC50 did it give?
**A.** > 25 µM (inactive)

**Q.** Which IC50 does the source give for `C/C=C/Cn1c(SCc2ccccc2)nc2c1c(=O)[nH]c(=O)n2C` here?
**A.** > 25 µM (inactive)

**Q.** With `CCCn1c(SCCc2ccccc2)nc2c1c(=O)[nH]c(=O)n2C` as the compound, how does the IC50 read?
**A.** > 25 µM (inactive)

**Q.** With `CCCCn1c(SCC(=O)c2ccccc2)nc2c1c(=O)[nH]c(=O)n2C` as the compound, how does the IC50 read?
**A.** > 25 µM (inactive)

**Q.** Which IC50 does the source give for `C/C(Cl)=C\Cn1c(NCCc2ccccc2)nc2c1c(=O)n(C)c(=O)n2C` here?
**A.** > 25 µM (inactive)

**Q.** How did the IC50 turn out when `CCCCn1c(SCC(=O)Nc2nnc(CC)s2)nc2c1c(=O)n(C)c(=O)n2C` was run?
**A.** > 25 µM (inactive)

**Q.** Which IC50 does the source give for `CCCCCn1c(SCCc2ccccc2)nc2c1c(=O)[nH]c(=O)n2C` here?
**A.** > 25 µM (inactive)

**Q.** `CC(C)Sc1nc2c(c(=O)[nH]c(=O)n2C)n1Cc1ccccc1` was tested. Which IC50 did it give?
**A.** > 25 µM (inactive)

**Q.** For `C/C=C/Cn1c(SCCCc2ccccc2)nc2c1c(=O)[nH]c(=O)n2C`, which IC50 is on record?
**A.** > 25 µM (inactive)

**Q.** How did the IC50 turn out when `COCCn1c(SCCCc2ccccc2)nc2c1c(=O)[nH]c(=O)n2C` was run?
**A.** > 25 µM (inactive)

**Q.** Which IC50 does the source give for `CC(C)n1c(SCCCc2ccccc2)nc2c1c(=O)[nH]c(=O)n2C` here?
**A.** > 25 µM (inactive)

**Q.** For `Cn1c(=O)[nH]c(=O)c2c1nc([N+](=O)[O-])n2Cc1ccccc1`, which IC50 is on record?
**A.** > 25 µM (inactive)

**Q.** With `C/C=C/Cn1c(SCc2ccc(Cl)cc2)nc2c1c(=O)[nH]c(=O)n2C` as the compound, how does the IC50 read?
**A.** > 25 µM (inactive)
